Measured values from US20240082282A1 (priority 2020, published 2024).
pKd: −log10 of the molar value. In brackets after ≈: the same amount, converted by molar mass. Where two headings read alike, the source gives them in different places.

What was measured:
[1] = system: Pseudomonas aeruginosa PAO1; type: cell-based
[2] = system: Enterobacter cloacae ATCC 13047; type: cell-based; conditions: Enterobacter cloacae ATCC 13047, anaerobic; for MIC: ATCC13047, read-out: Minimum inhibitory concentration (MIC)
[3] = system: Bacteroides nordii KLE 2369; type: cell-based; conditions: Bacteroides nordii KLE 2369, anaerobic, stool isolate; for MIC: KLE2369, read-out: Minimum inhibitory concentration (MIC)
[4] = system: Streptococcus sanguinis KLE 2374; type: cell-based; conditions: Streptococcus sanguinis KLE 2374, anaerobic, stool isolate; for MIC: KLE2374, read-out: Minimum inhibitory concentration (MIC)
[5] = system: Enterococcus faecalis KLE 2341; type: cell-based
[6] = system: Streptococcus salivarius KLE 2370; type: cell-based; conditions: Streptococcus salivarius KLE 2370, anaerobic, stool isolate; for MIC: KLE2370, read-out: Minimum inhibitory concentration (MIC)
B. burgdorferi N40 = assay: Bait experiment in infected mice; type: in vivo, C3H mice; conditions: for B. burgdorferi culture (% positive) / Mean # of B. burgdorferi/10 mg of skin tissue (qPCR): bait once a day for 5 days; for Culture positive (%): C3H, bait, 5 days, whole ear culture
Procedure: Mice were infected with B. burgdorferi.
To prepare the mouse bait, 2 g of Bait formulation 3 (Food source), 0.5 g freshly ground peanut butter (Whole foods), 35 μl of green food coloring mix (Whole foods) were added into a 60 mm Petri dish. Boiling water (4 mL) was added and mixed with a spatula. The mixture was then dispensed into wells of a 96 well plate with a spatula such that about ⅔rd of the well was full. Antibiotics or vehicle were added at appropriate volume and mixed with a pipette tip. Added volume was kept below 60 μL per well. The bait was allowed to air dry/solidify for a few hours and the prepared baits were stored at 4° C. until use.
To ensure that the bait would be consumed, mice were housed individually with their mouse chow withheld during treatment. The doses used in mice were matched to the pharmacokinetic profile of humans given ceftriaxone 1 g every 12 hours (Sai Life Sciences Ltd, India) and doxycycline 100 mg every 12 hours.
Skin was used for liquid culture, and RNA extraction. All other tissues were used for RNA extraction. The growth of B. burgdorferi in 10 day liquid cultures was detected by dark field microscopy with a 100× objective.

[7] = system: Bacteroides fragilis ATCC 25285; type: cell-based
[8] = system: Blautia producta ATCC 27340; type: cell-based; conditions: Blautia producta ATCC 27340, anaerobic; for MIC: ATCC27340, read-out: Minimum inhibitory concentration (MIC)
[9] = system: Bacteroides ovatus KLE 2306; type: cell-based; conditions: Bacteroides ovatus KLE 2306, anaerobic, stool isolate; for MIC: KLE2306, read-out: Minimum inhibitory concentration (MIC)
[10] = system: Clostridium tertium KLE 2303; type: cell-based; conditions: Clostridium tertium KLE 2303, anaerobic, stool isolate; for MIC: KLE2303, read-out: Minimum inhibitory concentration (MIC)
[11] = system: Shigella sonnei ATCC 25931; type: cell-based
[12] = system: Borreliella burgdorferi B31
[13] = system: B. burgdorferi overexpressing bmpD (Bb1286+pJSB275m_bmpD); assay: MIC of B. burgdorferi overexpressing bmpD; type: cell-based; conditions: for Change of MIC on overexpression of bmpD in B. burgdorferi: normalized to wild-type B. burgdorferi, IPTG-independent
E. coli WT BW25113 = assay: MIC of E. coli mutant strains
[14] = system: E. coli ΔtolC (no efflux); assay: MIC of E. coli mutant strains
[15] = system: Leptospira interrogans ATCC BAA-1198
[16] = system: Alkalispirochaeta americana DSM 14872
[17] = system: E. coli ΔTolC+pBAD30 bmpD; assay: MIC of E. coli overexpressing bmpD; conditions: arabinose induced
[18] = system: Borrelia burgdorferi BbP1286
Treponema pallidum = assay: MIC, T. pallidum in co-culture with rabbit Sf1Ep cells
E. coli ribosomes = assay: Toeprinting / in vitro translation, affinity to ribosome; type: biochemical
B. burgdorferi B31 KLEX2 = assay: MIC of hygromycin A resistant mutant; type: cell-based
HEK293 = conditions: HEK293, alamar blue, 72 hours
HepG2 = conditions: HepG2, alamar blue, 72 hours
[19] = system: Brachyspira (formerly Treponema) hyodysenteriae; conditions: report of a group from Japan; cited from earlier work
[20] = Pseudomonas aeruginosa PAO1, read-out: Minimum inhibitory concentration (MIC)
[21] = KLE2341, Enterococcus faecalis KLE 2341, anaerobic, stool isolate, read-out: Minimum inhibitory concentration (MIC)
[22] = ATCC25285, Bacteroides fragilis ATCC 25285, anaerobic, read-out: Minimum inhibitory concentration (MIC)
[23] = ATCC25931, Shigella sonnei ATCC 25931, anaerobic, read-out: Minimum inhibitory concentration (MIC)
[24] = Borreliella burgdorferi, B31, read-out: Minimum inhibitory concentration (MIC)
[25] = Borreliella bavariensis, read-out: Minimum inhibitory concentration (MIC)

In the case of `C[C@H]1c2cccc(O)c2C(=O)C2=C(O)[C@]3(O)C(=O)C(C(N)=O)=C(O)[C@@H](N(C)C)[C@@H]3[C@@H](O)[C@@H]21` [Doxycycline], the MIC [1, 20] was 32 µg/mL (≈ 72 µM), the MIC [2] was 8 µg/mL (≈ 18 µM) and the MIC [3] was 0.25 µg/mL (≈ 0.563 µM). For the same compound, the MIC [4] was 0.25 µg/mL (≈ 0.563 µM), the MIC [5, 21] was 0.5 µg/mL (≈ 1.13 µM) and the MIC [6] was 0.12 µg/mL (≈ 0.27 µM). For the same compound, the “B. burgdorferi culture (% positive)” value (B. burgdorferi N40; 100 mg/kg) was 0%, the “Mean # of B. burgdorferi/10 mg of skin tissue (qPCR)” value (B. burgdorferi N40; 100 mg/kg) was <1 B. burgdorferi/10 mg of skin t and the “Culture positive (%)” value (B. burgdorferi N40; daily dose 200 mg/kg/day) was 0%. It also gave an MIC [7, 22] of 0.5 µg/mL (≈ 1.13 µM), an MIC [8] of 2 µg/mL (≈ 4.5 µM) and an MIC [9] of 0.01 µg/mL (≈ 0.0225 µM). It also gave an MIC [10] of 0.03 µg/mL (≈ 0.0675 µM), an MIC [11, 23] of 4 µg/mL (≈ 9 µM) and an MIC [12, 24] of 0.25 µg/mL (≈ 0.563 µM). The MIC (Borrelia bavariensis; [25]) was 0.12 µg/mL (≈ 0.27 µM).
In the case of `CC1(C)S[C@@H]2[C@H](NC(=O)[C@H](N)c3ccc(O)cc3)C(=O)N2[C@H]1C(=O)O` [Amoxicillin], the MIC [1, 20] was > 128 µg/mL, the MIC [2] was > 128 µg/mL and the MIC [3] was 32 µg/mL (≈ 87.6 µM). It also gave an MIC [4] of 2 µg/mL (≈ 5.47 µM), an MIC [5, 21] of 0.5 µg/mL (≈ 1.37 µM) and an MIC [6] of 0.06 µg/mL (≈ 0.164 µM). It also gave an MIC [7, 22] of 16 µg/mL (≈ 43.8 µM), an MIC [8] of 1 µg/mL (≈ 2.74 µM) and an MIC [9] of 0.5 µg/mL (≈ 1.37 µM). The MIC [10] was 32 µg/mL (≈ 87.6 µM), the MIC [11, 23] was 2 µg/mL (≈ 5.47 µM) and the MIC [12, 24] was 0.25 µg/mL (≈ 0.684 µM). It also gave an MIC (Borrelia bavariensis; [25]) of 0.06 µg/mL (≈ 0.164 µM).
In the case of `CO/N=C(\C(=O)N[C@@H]1C(=O)N2C(C(=O)O)=C(CSc3nc(=O)c(=O)[nH]n3C)CS[C@H]12)c1csc(N)n1` [Ceftriaxone], the MIC [1, 20] was 64 µg/mL (≈ 115 µM), the MIC [2] was 64 µg/mL (≈ 115 µM) and the MIC [3] was 1 µg/mL (≈ 1.8 µM). For the same compound, the MIC [4] was 0.12 µg/mL (≈ 0.216 µM), the MIC [5, 21] was > 128 µg/mL and the “Change of MIC on overexpression of bmpD in B. burgdorferi” value (shortened to “Change of MIC on overexpression of bmpD”) [13] was “no effect”. For the same compound, the “Change of MIC on overexpression of bmpD” value ([13]; listed as ceftriaxone) was “remained unchanged”, the MIC [6] was 0.03 µg/mL (≈ 0.0541 µM) and the MIC [7, 22] was 2 µg/mL (≈ 3.61 µM). The MIC [8] was 0.5 µg/mL (≈ 0.902 µM), the MIC [9] was 0.02 µg/mL (≈ 0.0361 µM) and the MIC [10] was 1 µg/mL (≈ 1.8 µM). For the same compound, the MIC [11, 23] was 0.25 µg/mL (≈ 0.451 µM), the MIC [12, 24] was 0.01 µg/mL (≈ 0.018 µM) and the MIC (Borrelia bavariensis; [25]) was 0.01 µg/mL (≈ 0.018 µM).
In the case of Hygromycin A, the MIC ([1]; Pseudomonas aeruginosa) was >128 µg, the “Minimum inhibitory concentration (MIC)” value ([1]; Pseudomonas aeruginosa PAO1) was >128 µg/mL and the “Minimum inhibitory concentration (MIC)” value [2] was >128 µg/mL. For the same compound, the MIC (E. coli WT BW25113) was 512 µg/mL, the MIC ([14]; E. coli ΔtolC, no efflux) was 16 µg/mL and the “Decrease in MIC on addition of adenosine to E. coli” value ([14]; adenosine 2.5-2500 μM, concentration-dependent) was “up to 8 fold”. The “Minimum inhibitory concentration (MIC)” value [3] was 8 µg/mL, the “Minimum inhibitory concentration (MIC)” value [15] was 4 µg/mL and the MIC (Escherichia coli Nissle) was >128 µg. The “Minimum inhibitory concentration (MIC)” value [4] was 16 µg/mL, the MIC ([16]; Alkalispirochaeta americana) was 0.5 µg and the “Minimum inhibitory concentration (MIC)” value ([16]; Alkalispirochaeta americana DSM 14872, anaerobic) was 0.5 µg/mL. The “Reduction of E. coli MIC on inducing expression of BmpD” value [17] was 8 fold, the MIC ([5]; Enterococcus faecalis) was >128 µg and the “Minimum inhibitory concentration (MIC)” value ([5]; Enterococcus faecalis KLE 2341, anaerobic, stool isolate) was >128 µg/mL. For the same compound, the “Maximal non-toxic dose tested relative to minimal efficacious dose” value (500 mg/kg vs minimal efficacious dose) was 10 fold, the “Toxicity at maximal dose tested” value (C3H mice, 500 mg/kg, preliminary data) was “absence of toxicity” and the Signs of toxicity (any of the doses used in the efficacy experiments (IP, gavage, bait)) was “no signs of toxicity”. The Indications of toxicity (even at very high doses) was “no indications of toxicity”, the Biosafety window (preliminary testing) was > 500 mg/kg and the MIC ([13]; BmpD overexpressing B. burgdorferi (FIG. 7B)) was 0.0625 µg/mL. The “Change of MIC on overexpression of bmpD” value [13] was “four-fold reduction”, the “Minimum inhibitory concentration (MIC)” value [6] was 2 µg/mL and the MIC ([18]; Borrelia burgdorferi BbP1286) was 0.12 µg. The “Minimum inhibitory concentration (MIC)” value ([18]; Borreliella burgdorferi P1286, microaerophilic) was 0.12 µg/mL, the MIC (Treponema pallidum) was 0.03 µg and the “Minimum inhibitory concentration (MIC)” value (Treponema pallidum) was 0.03 µg/mL. The MIC (Treponema pallidum; monitoring spirochetes in co-culture with rabbit cells) was 0.03 µg/mL, the “B. burgdorferi culture (% positive)” value (B. burgdorferi N40; 200 mg/kg) was 0% and the “Mean # of B. burgdorferi/10 mg of skin tissue (qPCR)” value (B. burgdorferi N40; 200 mg/kg) was <1 B. burgdorferi/10 mg of skin t. The “Culture positive (%)” value (B. burgdorferi N40; daily dose 100 mg/kg/day) was 0%, the “Clearance of B. burgdorferi infection by consuming baits” value (B. burgdorferi N40; baits, FIG. 10) was “efficiently cleared” and the MIC ([7]; Bacteroides fragilis) was >128 µg. The “Minimum inhibitory concentration (MIC)” value ([7]; Bacteroides fragilis ATCC 25285, anaerobic) was 32 µg/mL, the pKd (E. coli ribosomes; E. coli ribosomes, inferred from in vitro translation arrest, read-out: Kd of binding to the ribosome) was > 8.00 and the “Arrest of in vitro translation of model ORFs” value (E. coli ribosomes; lowest concentration tested, 0.6 μM) was “complete arrest of translation”. For the same compound, the MIC (B. burgdorferi B31 KLEX2; B. burgdorferi B31 KLEX2, stable hygromycin A resistance) was 4 µg/mL, the “MIC increase as compared to wild type parent strain” value (B. burgdorferi B31 KLEX2; B. burgdorferi B31 KLEX2 vs parent) was 16 fold and the MIC (B. burgdorferi B31 KLEX2; Hygromycin A resistant B. burgdorferi (HygR) (FIG. 7B)) was 4 µg/mL. The IC50 (HEK293) was >512 µg/mL, the “Minimum inhibitory concentration (MIC)” value [8] was 64 µg/mL and the IC50 (HepG2) was >512 µg/mL. For the same compound, the “Activity against Brachyspira hyodysenteriae” value [19] was “good activity”, the “Minimum inhibitory concentration (MIC)” value [9] was 64 µg/mL and the “Minimum inhibitory concentration (MIC)” value [10] was 8 µg/mL. For the same compound, the MIC ([11]; Shigella sonnei) was 64 µg, the “Minimum inhibitory concentration (MIC)” value ([11]; Shigella sonnei ATCC 25931, anaerobic) was 64 µg/mL and the MIC [12] was 0.25 µg/mL. The “Minimum inhibitory concentration (MIC)” value ([12]; Borreliella burgdorferi B31, microaerophilic) was 0.25 µg/mL, the MIC (Borrelia bavariensis; B. bavariensis) was 0.25 µg/mL and the MIC (Borrelia bavariensis; Borrelia bavariensis) was 0.25 µg. For the same compound, the “Minimum inhibitory concentration (MIC)” value (Borrelia bavariensis; Borreliella bavariensis, microaerophilic) was 0.25 µg/mL.
